{"source": "ChEMBL document CHEMBL4190187", "about": "“Discovery of pyrazolopyrimidine derivatives as novel inhibitors of ataxia telangiectasia and rad3 related protein (ATR)” (Bioorg Med Chem Lett, 2017)", "key": {"[1]": {"target": "Activated CDC42 kinase 1 (Homo sapiens) (UniProt Q07912)", "assay": "Inhibition of recombinant human ACK1 (1 to 389 residues) at 1 uM using EFPIYDFLPAKKK as substrate after 40 mins in presence of [gamma-33P]ATP by scintillation counting method"}, "[2]": {"target": "5'-AMP-activated protein kinase catalytic subunit alpha-2 (Homo sapiens) (UniProt P54646)", "assay": "Inhibition of recombinant full-length human AMPKalpha2 at 1 uM using AMARAASAAALARRR as substrate after 40 mins in presence of [gamma-33P]ATP by scintillation counting method"}, "[3]": {"target": "Aurora kinase B (Homo sapiens) (UniProt Q96GD4)", "assay": "Inhibition of recombinant full-length human Aurora-B at 1 uM using AKRRRLSSLRA as substrate after 40 mins in presence of [gamma-33P]ATP by scintillation counting method"}, "[4]": {"target": "Protein-tyrosine kinase 6 (Homo sapiens) (UniProt Q13882)", "sequence (Q13882 whole entry, looked up)": "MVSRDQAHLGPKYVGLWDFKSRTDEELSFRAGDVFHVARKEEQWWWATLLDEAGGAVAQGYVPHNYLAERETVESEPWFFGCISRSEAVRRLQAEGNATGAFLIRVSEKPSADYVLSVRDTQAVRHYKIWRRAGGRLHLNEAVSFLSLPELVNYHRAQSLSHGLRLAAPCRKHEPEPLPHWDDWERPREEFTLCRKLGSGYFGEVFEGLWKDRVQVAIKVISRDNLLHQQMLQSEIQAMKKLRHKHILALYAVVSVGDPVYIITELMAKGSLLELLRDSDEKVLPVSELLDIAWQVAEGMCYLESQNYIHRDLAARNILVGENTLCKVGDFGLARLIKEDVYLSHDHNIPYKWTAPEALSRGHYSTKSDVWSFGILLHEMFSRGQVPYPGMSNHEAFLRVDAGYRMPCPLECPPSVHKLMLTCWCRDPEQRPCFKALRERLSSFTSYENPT", "assay": "Inhibition of recombinant full-length human BRK at 1 uM using poly(Glu,Tyr) 4:1 as substrate after 40 mins in presence of [gamma-33P]ATP by scintillation counting method"}, "[5]": {"target": "CDK9/cyclin T1 (Homo sapiens) (UniProt O60563+P50750)", "assay": "Inhibition of recombinant full-length human CDK9/Cyclin T1 at 1 uM using KTFCGTPEYLAPEVRREPRILSEEEQEMFRDFDYIADWC as substrate after 40 mins in presence of [gamma-33P]ATP by scintillation counting method", "type": "protein-complex assay"}, "[6]": {"target": "Casein kinase I isoform gamma-1 (Homo sapiens) (UniProt Q9HCP0)", "sequence (Q9HCP0 whole entry, looked up, the tested form may be a part, canonical isoform)": "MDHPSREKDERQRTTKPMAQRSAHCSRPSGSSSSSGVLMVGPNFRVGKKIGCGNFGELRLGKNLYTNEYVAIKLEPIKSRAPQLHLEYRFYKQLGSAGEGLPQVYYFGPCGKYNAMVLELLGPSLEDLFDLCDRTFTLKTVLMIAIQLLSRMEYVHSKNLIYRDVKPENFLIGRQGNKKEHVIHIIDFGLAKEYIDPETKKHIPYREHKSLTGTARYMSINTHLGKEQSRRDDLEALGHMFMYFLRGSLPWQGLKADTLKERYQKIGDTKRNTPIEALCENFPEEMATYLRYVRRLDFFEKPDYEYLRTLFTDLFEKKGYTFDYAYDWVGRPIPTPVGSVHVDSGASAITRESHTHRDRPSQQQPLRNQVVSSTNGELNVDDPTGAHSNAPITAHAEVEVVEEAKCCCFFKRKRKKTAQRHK", "assay": "Inhibition of recombinant human CK1gamma1 (25 to 355 residues) at 1 uM using KRRRALS(p)VASLPGL as substrate after 40 mins in presence of [gamma-33P]ATP by scintillation counting method"}, "[7]": {"test_system": "Mast/stem cell growth factor receptor Kit (Homo sapiens), P10721 [D816H]", "sequence (P10721 whole entry D816H)": "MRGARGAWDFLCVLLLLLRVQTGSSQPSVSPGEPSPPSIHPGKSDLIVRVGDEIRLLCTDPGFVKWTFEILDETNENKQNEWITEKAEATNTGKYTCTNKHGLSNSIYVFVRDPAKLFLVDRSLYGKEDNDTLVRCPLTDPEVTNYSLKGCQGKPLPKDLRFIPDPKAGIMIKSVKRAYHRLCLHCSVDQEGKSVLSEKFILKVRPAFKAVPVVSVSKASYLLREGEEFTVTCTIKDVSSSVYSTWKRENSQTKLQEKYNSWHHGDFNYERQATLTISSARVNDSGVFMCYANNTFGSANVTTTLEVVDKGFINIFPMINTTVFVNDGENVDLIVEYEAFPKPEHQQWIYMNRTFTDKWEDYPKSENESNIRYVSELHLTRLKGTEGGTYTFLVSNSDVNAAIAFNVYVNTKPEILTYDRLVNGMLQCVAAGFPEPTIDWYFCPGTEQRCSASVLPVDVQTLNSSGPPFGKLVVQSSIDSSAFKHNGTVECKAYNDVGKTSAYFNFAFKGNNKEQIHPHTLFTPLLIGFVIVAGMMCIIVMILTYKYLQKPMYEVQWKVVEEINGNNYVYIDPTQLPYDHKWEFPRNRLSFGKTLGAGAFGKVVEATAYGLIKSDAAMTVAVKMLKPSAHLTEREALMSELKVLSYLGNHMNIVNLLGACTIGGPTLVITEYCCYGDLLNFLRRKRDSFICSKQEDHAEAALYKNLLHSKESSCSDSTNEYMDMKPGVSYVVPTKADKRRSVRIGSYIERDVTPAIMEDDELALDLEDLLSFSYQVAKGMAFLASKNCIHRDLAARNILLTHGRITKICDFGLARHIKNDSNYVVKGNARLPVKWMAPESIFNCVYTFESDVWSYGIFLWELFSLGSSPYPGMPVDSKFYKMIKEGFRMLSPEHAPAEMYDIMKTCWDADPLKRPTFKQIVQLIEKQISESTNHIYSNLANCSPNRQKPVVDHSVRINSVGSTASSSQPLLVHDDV", "assay": "Inhibition of recombinant human cKit D816H mutant (544 to end residues) at 1 uM using GGMEDIYFEFMGGKKK as substrate after 40 mins in presence of [gamma-33P]ATP by scintillation counting method"}, "[8]": {"target": "Tyrosine-protein kinase CSK (Homo sapiens) (UniProt P41240)", "sequence (P41240 2-450 limits assumed)": "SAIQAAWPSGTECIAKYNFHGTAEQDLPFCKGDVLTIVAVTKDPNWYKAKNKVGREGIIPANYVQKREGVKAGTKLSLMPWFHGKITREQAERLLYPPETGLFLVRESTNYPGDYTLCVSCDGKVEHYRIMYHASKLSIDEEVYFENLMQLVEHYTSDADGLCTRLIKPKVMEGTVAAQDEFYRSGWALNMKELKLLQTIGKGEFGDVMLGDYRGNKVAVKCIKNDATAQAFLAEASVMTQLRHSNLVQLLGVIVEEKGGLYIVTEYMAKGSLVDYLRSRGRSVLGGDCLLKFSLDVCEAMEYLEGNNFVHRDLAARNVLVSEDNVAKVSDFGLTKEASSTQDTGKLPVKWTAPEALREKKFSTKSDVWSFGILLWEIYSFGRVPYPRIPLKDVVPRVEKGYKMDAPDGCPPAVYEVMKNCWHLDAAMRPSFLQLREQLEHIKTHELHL", "assay": "Inhibition of recombinant full-length human CSK at 1 uM using poly(Glu,Tyr) 4:1 as substrate after 40 mins in presence of [gamma-33P]ATP by scintillation counting method"}, "[9]": {"target": "Tyrosine-protein kinase Fer (Homo sapiens) (UniProt P16591)", "assay": "Inhibition of recombinant human FER (541 to end residues) at 1 uM using KKKSPGEYVNIEFG as substrate after 40 mins in presence of [gamma-33P]ATP by scintillation counting method"}, "[10]": {"target": "Fibroblast growth factor receptor 1 (Homo sapiens) (UniProt P11362)", "assay": "Inhibition of recombinant human FGFR1 (456 to 765 residues) at 1 uM using KKKSPGEYVNIEFG as substrate after 40 mins in presence of [gamma-33P]ATP by scintillation counting method"}, "[11]": {"target": "Fibroblast growth factor receptor 4 (Homo sapiens) (UniProt P22455)", "sequence (P22455 22-802 limits assumed)": "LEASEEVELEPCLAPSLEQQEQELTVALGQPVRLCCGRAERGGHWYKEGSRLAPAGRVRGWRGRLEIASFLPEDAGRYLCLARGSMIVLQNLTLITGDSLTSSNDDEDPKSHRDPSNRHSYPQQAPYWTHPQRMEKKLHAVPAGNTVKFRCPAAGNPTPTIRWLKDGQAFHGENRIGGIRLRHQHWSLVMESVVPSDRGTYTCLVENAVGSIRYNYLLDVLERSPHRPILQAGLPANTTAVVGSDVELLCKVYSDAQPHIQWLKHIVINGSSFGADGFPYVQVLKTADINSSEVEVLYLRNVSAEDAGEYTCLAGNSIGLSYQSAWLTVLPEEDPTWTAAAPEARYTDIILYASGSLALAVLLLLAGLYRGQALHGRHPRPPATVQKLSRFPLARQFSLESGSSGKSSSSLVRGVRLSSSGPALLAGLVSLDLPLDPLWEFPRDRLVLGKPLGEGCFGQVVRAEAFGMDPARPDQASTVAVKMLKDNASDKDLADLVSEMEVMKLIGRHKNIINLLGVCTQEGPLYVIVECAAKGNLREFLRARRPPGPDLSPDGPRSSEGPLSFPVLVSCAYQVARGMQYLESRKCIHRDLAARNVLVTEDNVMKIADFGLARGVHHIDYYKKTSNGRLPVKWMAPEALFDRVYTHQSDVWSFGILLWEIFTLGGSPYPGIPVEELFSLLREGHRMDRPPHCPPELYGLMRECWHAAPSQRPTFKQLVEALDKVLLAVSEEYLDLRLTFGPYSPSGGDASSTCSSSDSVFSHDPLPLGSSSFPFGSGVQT", "assay": "Inhibition of recombinant human FGFR4 (442 to 755 residues) at 1 uM using poly(Glu,Tyr) 4:1 as substrate after 40 mins in presence of [gamma-33P]ATP by scintillation counting method"}, "[12]": {"target": "G protein-coupled receptor kinase 6 (Homo sapiens) (UniProt P43250)", "assay": "Inhibition of recombinant full-length human GRK6 at 1 uM using casein as substrate after 40 mins in presence of [gamma-33P]ATP by scintillation counting method"}, "[13]": {"target": "Glycogen synthase kinase-3 beta (Homo sapiens) (UniProt P49841)", "sequence (P49841 whole entry, looked up)": "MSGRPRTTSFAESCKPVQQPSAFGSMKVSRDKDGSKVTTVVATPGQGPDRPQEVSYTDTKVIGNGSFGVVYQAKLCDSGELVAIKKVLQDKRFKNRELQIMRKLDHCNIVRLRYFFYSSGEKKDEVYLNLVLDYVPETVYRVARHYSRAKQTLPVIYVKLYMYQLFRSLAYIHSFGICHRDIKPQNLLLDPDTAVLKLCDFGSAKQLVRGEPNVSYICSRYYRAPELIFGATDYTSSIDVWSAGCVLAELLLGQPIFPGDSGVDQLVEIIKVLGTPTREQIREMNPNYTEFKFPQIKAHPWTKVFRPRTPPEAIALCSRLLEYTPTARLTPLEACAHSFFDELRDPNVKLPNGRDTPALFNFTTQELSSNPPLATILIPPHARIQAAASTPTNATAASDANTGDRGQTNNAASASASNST", "assay": "Inhibition of recombinant human GSK3beta (2 to end residues) at 1 uM using YRRAAVPPSPSLSRHSSPHQS(p)EDEEE (phospho GS2 peptide) as substrate after 40 mins in presence of [gamma-33P]ATP by scintillation counting method"}, "[14]": {"target": "Tyrosine-protein kinase JAK2 (Homo sapiens) (UniProt O60674)", "assay": "Inhibition of recombinant human JAK2 (808 to end residues) at 1 uM using KTFCGTPEYLAPEVRREPRILSEEEQEMFRDFDYIADWC as substrate after 40 mins in presence of [gamma-33P]ATP by scintillation counting method"}, "[15]": {"target": "Tyrosine-protein kinase Lck (Homo sapiens) (UniProt P06239)", "assay": "Inhibition of recombinant full-length human Lck at 1 uM using KVEKIGEGTYGVVYK (Cdc2 peptide) as substrate after 40 mins in presence of [gamma-33P]ATP by scintillation counting method"}, "[16]": {"target": "Mitogen-activated protein kinase 1 (Homo sapiens) (UniProt P28482)", "assay": "Inhibition of recombinant full-length human MAPK2 at 1 uM using myelin basic protein as substrate after 40 mins in presence of [gamma-33P]ATP by scintillation counting method"}, "[17]": {"target": "MAP/microtubule affinity-regulating kinase 3 (Homo sapiens) (UniProt P27448)", "assay": "Inhibition of recombinant full-length human MARK3 at 1 uM using KKKVSRSGLYRSPSMPENLNRPR as substrate after 40 mins in presence of [gamma-33P]ATP by scintillation counting method"}, "[18]": {"target": "MAP/microtubule affinity-regulating kinase 4 (Homo sapiens) (UniProt Q96L34)", "assay": "Inhibition of recombinant full-length human MARK4 at 1 uM using KKKVSRSGLYRSPSMPENLNRPR as substrate after 40 mins in presence of [gamma-33P]ATP by scintillation counting method"}, "[19]": {"target": "MAP kinase-interacting serine/threonine-protein kinase 2 (Homo sapiens) (UniProt Q9HBH9)", "sequence (Q9HBH9 whole entry, looked up)": "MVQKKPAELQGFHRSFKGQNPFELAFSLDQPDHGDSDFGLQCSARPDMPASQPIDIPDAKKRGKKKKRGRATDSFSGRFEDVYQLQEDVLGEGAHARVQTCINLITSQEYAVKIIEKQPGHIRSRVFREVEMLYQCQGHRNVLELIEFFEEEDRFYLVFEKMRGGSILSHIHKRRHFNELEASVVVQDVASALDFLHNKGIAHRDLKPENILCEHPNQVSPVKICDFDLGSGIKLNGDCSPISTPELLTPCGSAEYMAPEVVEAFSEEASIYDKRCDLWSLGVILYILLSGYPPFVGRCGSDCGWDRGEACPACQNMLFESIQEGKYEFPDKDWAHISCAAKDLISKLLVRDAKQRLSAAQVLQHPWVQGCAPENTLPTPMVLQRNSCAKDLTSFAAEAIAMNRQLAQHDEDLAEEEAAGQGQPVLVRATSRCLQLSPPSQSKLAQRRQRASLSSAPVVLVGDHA", "assay": "Inhibition of recombinant full-length human Mnk2 at 1 uM using myelin basic protein as substrate after 40 mins in presence of [gamma-33P]ATP by scintillation counting method"}, "[20]": {"target": "Serine/threonine-protein kinase Nek11 (Homo sapiens) (UniProt Q8NG66)", "sequence (Q8NG66 whole entry)": "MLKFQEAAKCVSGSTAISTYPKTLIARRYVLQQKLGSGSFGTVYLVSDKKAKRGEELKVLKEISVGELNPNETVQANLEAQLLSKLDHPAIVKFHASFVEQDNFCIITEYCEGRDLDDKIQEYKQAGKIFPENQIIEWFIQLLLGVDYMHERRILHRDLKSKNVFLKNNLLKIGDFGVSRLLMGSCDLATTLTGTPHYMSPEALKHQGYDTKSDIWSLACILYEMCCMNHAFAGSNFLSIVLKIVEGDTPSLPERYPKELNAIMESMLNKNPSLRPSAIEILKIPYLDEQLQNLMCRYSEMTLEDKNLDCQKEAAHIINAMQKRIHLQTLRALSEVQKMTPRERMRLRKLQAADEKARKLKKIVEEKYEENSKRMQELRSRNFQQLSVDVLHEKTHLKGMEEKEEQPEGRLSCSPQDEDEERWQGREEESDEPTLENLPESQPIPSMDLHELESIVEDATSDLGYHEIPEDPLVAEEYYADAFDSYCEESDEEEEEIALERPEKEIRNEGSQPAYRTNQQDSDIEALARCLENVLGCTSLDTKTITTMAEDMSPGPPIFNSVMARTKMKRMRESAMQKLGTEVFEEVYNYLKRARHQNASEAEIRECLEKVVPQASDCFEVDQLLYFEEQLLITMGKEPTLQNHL", "assay": "Inhibition of recombinant full-length human NEK11 at 1 uM using myelin basic protein as substrate after 40 mins in presence of [gamma-33P]ATP by scintillation counting method"}, "[21]": {"target": "Platelet-derived growth factor receptor beta (Homo sapiens) (UniProt P09619)", "assay": "Inhibition of recombinant human PDGFRbeta (557 to end residues) at 1 uM using poly(Glu,Tyr) 4:1 as substrate after 40 mins in presence of [gamma-33P]ATP by scintillation counting method"}, "[22]": {"target": "Phosphorylase b kinase gamma catalytic chain, skeletal muscle/heart isoform (Homo sapiens) (UniProt Q16816)", "sequence (Q16816 whole entry, looked up, canonical isoform)": "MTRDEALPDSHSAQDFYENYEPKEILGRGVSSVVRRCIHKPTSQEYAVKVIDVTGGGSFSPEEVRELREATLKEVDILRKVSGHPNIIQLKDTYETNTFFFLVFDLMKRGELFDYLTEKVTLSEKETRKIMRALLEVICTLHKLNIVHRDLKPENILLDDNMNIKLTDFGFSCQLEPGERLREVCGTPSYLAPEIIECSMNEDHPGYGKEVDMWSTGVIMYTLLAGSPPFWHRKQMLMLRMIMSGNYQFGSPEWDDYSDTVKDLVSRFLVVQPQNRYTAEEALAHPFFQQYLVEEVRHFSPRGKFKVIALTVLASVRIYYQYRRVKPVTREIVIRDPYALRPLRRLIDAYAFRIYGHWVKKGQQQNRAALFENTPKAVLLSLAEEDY", "assay": "Inhibition of recombinant full-length human PhKgamma1 at 1 uM using KKLNRTLSFAEPG as substrate after 120 mins in presence of [gamma-33P]ATP by scintillation counting method"}, "[23]": {"target": "Serine/threonine-protein kinase TAO1 (Homo sapiens) (UniProt Q7L7X3)", "assay": "Inhibition of recombinant human TAO1 (1 to 327 residues) at 1 uM using myelin basic protein as substrate after 40 mins in presence of [gamma-33P]ATP by scintillation counting method"}}, "data": [{"smiles": "CS(=O)(=O)c1ccc(-n2nc(-c3cnc4[nH]ccc4c3)c3c(N)ncnc32)cc1", "values": [{"measurement": "inhibition", "setting": "[1]", "result": 44, "unit": "%"}, {"measurement": "inhibition", "setting": "[2]", "result": -9, "unit": "%"}, {"measurement": "inhibition", "setting": "[3]", "result": 7, "unit": "%"}, {"measurement": "inhibition", "setting": "[4]", "result": 102, "unit": "%"}, {"measurement": "inhibition", "setting": "[5]", "result": 7, "unit": "%"}, {"measurement": "inhibition", "setting": "[6]", "result": 4, "unit": "%"}, {"measurement": "inhibition", "setting": "[7]", "result": 85, "unit": "%"}, {"measurement": "inhibition", "setting": "[8]", "result": 3, "unit": "%"}, {"measurement": "inhibition", "setting": "[9]", "result": 1, "unit": "%"}, {"measurement": "inhibition", "setting": "[10]", "result": 63, "unit": "%"}, {"measurement": "inhibition", "setting": "[11]", "result": 3, "unit": "%"}, {"measurement": "inhibition", "setting": "[12]", "result": -3, "unit": "%"}, {"measurement": "inhibition", "setting": "[13]", "result": 2, "unit": "%"}, {"measurement": "inhibition", "setting": "[14]", "result": 5, "unit": "%"}, {"measurement": "inhibition", "setting": "[15]", "result": 55, "unit": "%"}, {"measurement": "inhibition", "setting": "[16]", "result": 1, "unit": "%"}, {"measurement": "inhibition", "setting": "[17]", "result": 4, "unit": "%"}, {"measurement": "inhibition", "setting": "[18]", "result": -3, "unit": "%"}, {"measurement": "inhibition", "setting": "[19]", "result": -6, "unit": "%"}, {"measurement": "inhibition", "setting": "[20]", "result": 19, "unit": "%"}, {"measurement": "inhibition", "setting": "[21]", "result": -7, "unit": "%"}, {"measurement": "inhibition", "setting": "[22]", "result": -4, "unit": "%"}, {"measurement": "inhibition", "setting": "[23]", "result": 7, "unit": "%"}]}]}
